The target of assay [1] is RmtA (Emericella nidulans) (UniProt Q5VLE3). The assay is described as follows: Inhibition of Aspergillus nidulans RmtA at 40 uM by TRF assay. Also on record: scale not given: the % may be the effect or the level left.
The target of assay [2] is Protein arginine N-methyltransferase 1 (Homo sapiens) (UniProt Q99873). As to the kind of experiment: Inhibition of human PRMT1 at 40 uM by TRF assay. Set-up: scale not given: the % may be the effect or the level left.
Assay [3] deals with T1, Histone-lysine N-methyltransferase SETD7 (Homo sapiens) (UniProt Q8WTS6).
T1 sequence (whole entry): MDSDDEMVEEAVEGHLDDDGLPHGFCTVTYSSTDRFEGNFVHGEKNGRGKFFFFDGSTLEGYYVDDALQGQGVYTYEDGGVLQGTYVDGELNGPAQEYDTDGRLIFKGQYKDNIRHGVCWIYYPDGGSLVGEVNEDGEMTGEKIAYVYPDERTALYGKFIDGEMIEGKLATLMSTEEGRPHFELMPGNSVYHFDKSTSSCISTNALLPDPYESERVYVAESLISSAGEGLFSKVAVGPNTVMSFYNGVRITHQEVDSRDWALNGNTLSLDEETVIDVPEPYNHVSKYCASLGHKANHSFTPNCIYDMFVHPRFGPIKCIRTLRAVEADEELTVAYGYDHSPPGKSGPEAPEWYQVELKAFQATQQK
The assay is described as follows: Inhibition of lysine methyltransferase SET7/9 at 50 uM.

The target in assay [4] is RmtA (Emericella nidulans, UniProt Q5VLE3). The assay is described as follows: Inhibition of Aspergillus nidulans RmtA by TRF assay.
Sequence of RmtA (Q5VLE3 whole entry): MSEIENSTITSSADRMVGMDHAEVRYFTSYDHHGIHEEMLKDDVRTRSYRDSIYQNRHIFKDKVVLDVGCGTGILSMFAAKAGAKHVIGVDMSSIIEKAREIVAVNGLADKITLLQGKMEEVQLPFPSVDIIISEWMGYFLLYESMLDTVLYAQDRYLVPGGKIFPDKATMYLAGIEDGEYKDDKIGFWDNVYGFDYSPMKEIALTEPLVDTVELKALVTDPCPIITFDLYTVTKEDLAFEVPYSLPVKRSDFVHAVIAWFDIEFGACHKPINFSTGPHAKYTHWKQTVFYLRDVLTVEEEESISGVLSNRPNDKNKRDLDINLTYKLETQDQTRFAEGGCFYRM

pIC50: −log10 of the molar value. Activity calls are given as the source filed them. The calls are words filed in the database; no cut-off is given here.

Sequence of RmtA (Emericella nidulans) (Q5VLE3 as listed by the source): as the sequence (Q5VLE3 whole entry) above
Sequence of Protein arginine N-methyltransferase 1 (Homo sapiens) (Q99873 whole entry, looked up): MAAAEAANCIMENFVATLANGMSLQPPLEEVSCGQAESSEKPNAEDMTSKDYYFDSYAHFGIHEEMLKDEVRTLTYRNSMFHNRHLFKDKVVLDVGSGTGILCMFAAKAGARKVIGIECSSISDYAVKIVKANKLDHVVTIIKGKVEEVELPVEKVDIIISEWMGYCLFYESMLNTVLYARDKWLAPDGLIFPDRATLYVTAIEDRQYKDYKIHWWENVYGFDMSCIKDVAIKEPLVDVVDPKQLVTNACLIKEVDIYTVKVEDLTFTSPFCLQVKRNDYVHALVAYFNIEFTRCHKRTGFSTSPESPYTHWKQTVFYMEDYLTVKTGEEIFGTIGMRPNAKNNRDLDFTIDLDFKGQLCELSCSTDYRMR

`CC(SC1c2ccccc2Oc2ccccc21)C(=O)NCCOCCOCCNC(=O)C(C)SC1c2ccccc2Oc2ccccc21` (stereo not given): the Activity in assay [1] and in assay [2] was less than 20% in each case.
As to `CC(SC1c2ccccc2Oc2ccccc21)C(=O)NCCNC(=O)C(C)SC1c2ccccc2Oc2ccccc21` (stereo not given), the outcome in assay [3] was inactive. Besides, the negative logarithm of the IC50 (pIC50) in assay [4] is 4.34.
Regarding `O=C(CSC1c2ccccc2Oc2ccccc21)N1CCCCC1`, the Activity in assay [1] and in assay [2] was less than 20% in each case.
As for `CC(SC1c2ccccc2Sc2ccccc21)C(=O)N1CCCC1` (stereo not given), the Activity in assay [1] and in assay [2] was less than 20% throughout.
In assay [2], `CC(S)C(=O)NCCCN` (stereo not given) yielded an Activity of less than 20%. Further, the pIC50 in assay [4] was 4.33.

By pIC50 is commonly meant the IC50 on a negative log10 scale, so that one unit is a factor of ten.

The values above are taken from ChEMBL document CHEMBL1145428, “A novel arginine methyltransferase inhibitor with cellular activity” (Bioorg Med Chem Lett, 2007).
